In ChEMBL document CHEMBL1144997, “Interaction of cis-(6-benzhydrylpiperidin-3-yl)benzylamine analogues with monoamine transporters: structure-activity relationship study of structurally constrained 3,6-disubstituted piperidine analogues of (2,2-diphenylethyl)-[1-(4-fluorobenzyl)piperidin-4-ylmethyl]amine” (J Med Chem, 2003):
pIC50: −log10 of the molar value. Each block holds one compound with its values, some of them ahead of it.

How the values were obtained:
[1] = target: Sodium-dependent dopamine transporter (Rattus norvegicus, UniProt P23977); assay: biochemical; type: tissue-based, Striatum
Description: Binding affinity at the dopamine transporter in rast striatum by [3H]WIN-35428 displacement.

[2] = target: Norepinephrine transporter (Rattus norvegicus, UniProt Q9WTR4); assay: Binding affinity at the norepinephrine transporter in rat striatum by [3H]nisoxetine displacement.; type: tissue-based
[3] = target: Sodium-dependent serotonin transporter (Rattus norvegicus, UniProt P31652); assay: Binding affinity at serotonin transporter in rat striatum by [3H]citalopram displacement.; type: tissue-based
Rattus norvegicus = organism: Rattus norvegicus; assay: Inhibition of DAT uptake was determined by measuring the [3H]DA accumulation in rat striatal synaptosomes; type: functional; conditions: Brain
[4] = Ratio of [3H]- DA uptake to DAT binding was determined; type: functional

Sodium-dependent dopamine transporter, sequence (P23977 whole entry): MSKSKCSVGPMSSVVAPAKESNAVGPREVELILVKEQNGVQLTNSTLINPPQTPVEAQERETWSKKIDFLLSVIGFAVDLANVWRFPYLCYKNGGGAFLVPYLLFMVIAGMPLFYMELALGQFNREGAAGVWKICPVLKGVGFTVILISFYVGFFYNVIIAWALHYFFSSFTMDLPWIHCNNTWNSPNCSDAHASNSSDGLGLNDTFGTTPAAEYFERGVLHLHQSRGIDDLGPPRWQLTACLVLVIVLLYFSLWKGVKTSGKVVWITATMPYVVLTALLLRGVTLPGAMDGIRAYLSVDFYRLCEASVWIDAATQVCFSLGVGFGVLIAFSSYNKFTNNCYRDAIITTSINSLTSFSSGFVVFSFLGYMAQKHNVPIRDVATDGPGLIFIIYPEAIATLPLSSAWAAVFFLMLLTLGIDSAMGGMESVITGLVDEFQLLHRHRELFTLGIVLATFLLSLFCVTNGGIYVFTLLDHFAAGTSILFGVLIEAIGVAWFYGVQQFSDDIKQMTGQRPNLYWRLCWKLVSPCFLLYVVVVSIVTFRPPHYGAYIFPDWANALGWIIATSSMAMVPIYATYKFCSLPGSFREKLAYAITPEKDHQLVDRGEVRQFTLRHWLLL
Sodium-dependent serotonin transporter, sequence (P31652 whole entry): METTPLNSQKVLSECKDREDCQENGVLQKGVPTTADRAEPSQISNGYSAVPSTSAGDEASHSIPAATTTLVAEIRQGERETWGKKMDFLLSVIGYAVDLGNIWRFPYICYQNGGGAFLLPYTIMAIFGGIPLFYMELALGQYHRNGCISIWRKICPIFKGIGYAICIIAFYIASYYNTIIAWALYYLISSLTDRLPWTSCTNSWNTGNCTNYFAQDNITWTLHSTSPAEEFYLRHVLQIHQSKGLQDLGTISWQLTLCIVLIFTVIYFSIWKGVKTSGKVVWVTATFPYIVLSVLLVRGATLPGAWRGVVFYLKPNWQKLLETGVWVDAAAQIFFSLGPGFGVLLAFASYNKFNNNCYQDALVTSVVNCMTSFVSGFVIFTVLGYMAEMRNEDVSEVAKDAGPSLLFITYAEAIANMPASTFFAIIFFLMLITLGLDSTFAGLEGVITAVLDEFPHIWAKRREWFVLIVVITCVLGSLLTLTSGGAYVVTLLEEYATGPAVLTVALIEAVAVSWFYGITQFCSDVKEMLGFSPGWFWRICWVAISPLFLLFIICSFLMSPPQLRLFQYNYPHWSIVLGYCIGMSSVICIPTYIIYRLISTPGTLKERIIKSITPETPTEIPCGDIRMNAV
Norepinephrine transporter, sequence (Q9WTR4 whole entry): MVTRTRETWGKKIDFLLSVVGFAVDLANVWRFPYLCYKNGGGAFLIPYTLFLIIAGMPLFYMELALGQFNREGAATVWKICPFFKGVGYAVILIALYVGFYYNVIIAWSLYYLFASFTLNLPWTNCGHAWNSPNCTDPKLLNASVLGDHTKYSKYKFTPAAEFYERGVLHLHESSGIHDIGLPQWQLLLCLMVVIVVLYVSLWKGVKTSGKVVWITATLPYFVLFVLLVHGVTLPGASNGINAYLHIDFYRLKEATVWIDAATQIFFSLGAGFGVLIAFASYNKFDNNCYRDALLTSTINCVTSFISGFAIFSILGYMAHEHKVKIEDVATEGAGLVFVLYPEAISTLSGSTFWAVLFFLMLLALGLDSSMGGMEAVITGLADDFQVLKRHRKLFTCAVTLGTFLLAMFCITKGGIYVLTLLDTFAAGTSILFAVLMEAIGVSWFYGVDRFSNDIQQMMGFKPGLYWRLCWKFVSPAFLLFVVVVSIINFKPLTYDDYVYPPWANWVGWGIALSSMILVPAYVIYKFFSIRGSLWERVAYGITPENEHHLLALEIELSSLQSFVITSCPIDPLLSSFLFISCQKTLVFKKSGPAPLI

SMILES: c1ccc(CN[C@@H]2CC[C@H](C(c3ccccc3)c3ccccc3)NC2)cc1
pIC50 [1]: 6.94
pIC50 [2]: 6.21
pIC50 [3]: 5.67

SMILES: c1ccc(C(c2ccccc2)[C@H]2CC[C@@H](NCc3cc4ccccc4[nH]3)CN2)cc1
pIC50 [1]: 7.02
pIC50 [2]: 6.00
pIC50 [3]: 5.74
pIC50 (Rattus norvegicus): 7.29
Selectivity ratio [4]: 0.53

SMILES: c1ccc(C(c2ccccc2)[C@H]2CC[C@@H](NCc3c[nH]c4ccccc34)CN2)cc1
pIC50 [1]: 6.08
pIC50 [2]: 5.42
pIC50 [3]: 5.52

SMILES: COc1ccc(CN[C@@H]2CC[C@H](C(c3ccccc3)c3ccccc3)NC2)cc1
pIC50 [1]: 7.32
pIC50 [2]: 5.95
pIC50 [3]: 5.98
pIC50 (Rattus norvegicus): 7.39
Selectivity ratio [4]: 0.85

Selectivity ratio [4]: 2.5
SMILES: Fc1ccc(CN2CCC(CNCC(c3ccccc3)c3ccccc3)CC2)cc1

SMILES: N#Cc1ccc(CN[C@H]2CC[C@@H](C(c3ccccc3)c3ccccc3)NC2)cc1
pIC50 [1]: 7.95
pIC50 [2]: 5.78
pIC50 [3]: 6.36
pIC50 (Rattus norvegicus): 8.04
Selectivity ratio [4]: 0.8

SMILES: N#Cc1ccc(CN[C@@H]2CC[C@H](C(c3ccccc3)c3ccccc3)NC2)cc1
pIC50 [1]: 6.96
pIC50 [2]: 4.78
pIC50 [3]: 5.81
pIC50 (Rattus norvegicus): 6.82
Selectivity ratio [4]: 1.4

SMILES: c1ccc(C(c2ccccc2)[C@H]2CC[C@@H](NCc3csc4ccccc34)CN2)cc1
pIC50 [1]: 6.29
pIC50 [2]: 5.98
pIC50 [3]: 5.56

SMILES: Fc1ccc(CCNC2CCC(C(c3ccccc3)c3ccccc3)NC2)cc1 (stereo not given)
pIC50 [1]: 6.76
pIC50 [2]: 5.76
pIC50 [3]: 5.66

SMILES: Fc1ccc(CN[C@@H]2CC[C@H](C(c3ccccc3)c3ccccc3)NC2)cc1F
pIC50 [1]: 7.20
pIC50 [2]: 5.80
pIC50 [3]: 5.65
pIC50 (Rattus norvegicus): 7.11
Selectivity ratio [4]: 1.2

SMILES: Oc1ccc(CN[C@@H]2CC[C@H](C(c3ccccc3)c3ccccc3)NC2)cc1
pIC50 [1]: 7.18
pIC50 [2]: 6.70
pIC50 [3]: 6.06

SMILES: Fc1ccc(CNC2CCC(C(c3ccccc3)c3ccccc3)NC2)cc1 (racemic)
Selectivity ratio [4]: 1.4

SMILES: Fc1ccc(CN[C@@H]2CC[C@H](C(c3ccccc3)c3ccccc3)NC2)cc1
pIC50 [1]: 6.64
pIC50 [2]: 5.64
pIC50 [3]: 5.45
pIC50 (Rattus norvegicus): 6.85
Selectivity ratio [4]: 0.62

SMILES: Fc1ccc(CN[C@H]2CC[C@@H](C(c3ccccc3)c3ccccc3)NC2)cc1
pIC50 [1]: 7.47
pIC50 [2]: 5.85
pIC50 [3]: 5.88
pIC50 (Rattus norvegicus): 7.27
Selectivity ratio [4]: 1.6

SMILES: c1ccc(C(c2ccccc2)[C@H]2CC[C@@H](NCc3cccs3)CN2)cc1
pIC50 [1]: 6.57
pIC50 [2]: 5.33
pIC50 [3]: 5.44
